Measurements as given in EPA's aquatic toxicity sets.

What was measured:
Pimephales promelas = assay: 96 h LC50 (-log10 mol/L); higher = more toxic
Tetrahymena pyriformis = assay: 48 h IGC50 (-log10 mol/L); higher = more toxic

Q: What does the source list for `CCC(C)=O`?
A: 96 h LC50 (-log10 mol/L) (Pimephales promelas): 1.35; 48 h IGC50 (-log10 mol/L) (Tetrahymena pyriformis): 1.25

Q: Which “96 h LC50 (-log10 mol/L)” value (Pimephales promelas) does the source give for `COC(=O)c1ccc([N+](=O)[O-])cc1` here?
A: The value was 3.88.

Q: And the “48 h IGC50 (-log10 mol/L)” value (Tetrahymena pyriformis)?
A: The value was 3.39.

Q: What does the source list for `CC(=O)CCC=C(C)C`?
A: 96 h LC50 (-log10 mol/L) (Pimephales promelas): 3.17; 48 h IGC50 (-log10 mol/L) (Tetrahymena pyriformis): 2.55

Q: How did the “96 h LC50 (-log10 mol/L)” value (Pimephales promelas) turn out when `CCOc1ccc(N)c([N+](=O)[O-])c1` was run?
A: Its value is 3.85.

Q: What about the “48 h IGC50 (-log10 mol/L)” value (Tetrahymena pyriformis) of the same molecule?
A: Its value is 3.76.

Q: What does the source list for `CC(=O)c1cccn1C`?
A: 96 h LC50 (-log10 mol/L) (Pimephales promelas): 2.9; 48 h IGC50 (-log10 mol/L) (Tetrahymena pyriformis): 2.31

Q: What does the source list for `c1cc(CCc2ccncc2)ccn1`?
A: 96 h LC50 (-log10 mol/L) (Pimephales promelas): 3.09; 48 h IGC50 (-log10 mol/L) (Tetrahymena pyriformis): 2.97

Q: For `Nc1ccccc1`, which “96 h LC50 (-log10 mol/L)” value (Pimephales promelas) is on record?
A: The value was 2.99.

Q: What about the “48 h IGC50 (-log10 mol/L)” value (Tetrahymena pyriformis) of the same molecule?
A: Its value is 2.77.

Q: With `O=C(O)CCCCC(=O)O` as the molecule, how does the “96 h LC50 (-log10 mol/L)” value (Pimephales promelas) read?
A: Its value is 3.18.

Q: What about the “48 h IGC50 (-log10 mol/L)” value (Tetrahymena pyriformis) of the same molecule?
A: Its value is 2.39.

Q: Which “96 h LC50 (-log10 mol/L)” value (Pimephales promelas) does the source give for `CCCCCCCBr` here?
A: The value was 5.09.

Q: And the “48 h IGC50 (-log10 mol/L)” value (Tetrahymena pyriformis)?
A: The value was 4.49.

Q: How did the “96 h LC50 (-log10 mol/L)” value (Pimephales promelas) turn out when `C=CCO` was run?
A: The value was 5.26.

Q: And the “48 h IGC50 (-log10 mol/L)” value (Tetrahymena pyriformis)?
A: Its value is 1.08.

Q: With `N#Cc1cc(Cl)ccc1N` as the molecule, how does the “96 h LC50 (-log10 mol/L)” value (Pimephales promelas) read?
A: Its value is 3.73.

Q: What about the “48 h IGC50 (-log10 mol/L)” value (Tetrahymena pyriformis) of the same molecule?
A: The value was 3.44.

Q: With `Oc1cccc(O)c1` as the molecule, how does the “96 h LC50 (-log10 mol/L)” value (Pimephales promelas) read?
A: Its value is 3.3.

Q: What about the “48 h IGC50 (-log10 mol/L)” value (Tetrahymena pyriformis) of the same molecule?
A: The value was 2.35.

Q: For `c1ccc2occc2c1`, which “96 h LC50 (-log10 mol/L)” value (Pimephales promelas) is on record?
A: The value was 3.93.

Q: And the “48 h IGC50 (-log10 mol/L)” value (Tetrahymena pyriformis)?
A: The value was 2.89.

Q: What does the source list for `Cc1ccc([N+](=O)[O-])c(O)c1`?
A: 96 h LC50 (-log10 mol/L) (Pimephales promelas): 3.51; 48 h IGC50 (-log10 mol/L) (Tetrahymena pyriformis): 3.59

Q: With `CCCCOC(C)=O` as the molecule, how does the “96 h LC50 (-log10 mol/L)” value (Pimephales promelas) read?
A: Its value is 3.81.

Q: What about the “48 h IGC50 (-log10 mol/L)” value (Tetrahymena pyriformis) of the same molecule?
A: The value was 2.51.

Q: For `Oc1ccccc1O`, which “96 h LC50 (-log10 mol/L)” value (Pimephales promelas) is on record?
A: Its value is 4.29.

Q: And the “48 h IGC50 (-log10 mol/L)” value (Tetrahymena pyriformis)?
A: The value was 3.75.

Q: Which results are given for `C=CCCl`?
A: 96 h LC50 (-log10 mol/L) (Pimephales promelas): 3.55; 48 h IGC50 (-log10 mol/L) (Tetrahymena pyriformis): 2.06

Q: How did the “96 h LC50 (-log10 mol/L)” value (Pimephales promelas) turn out when `CCOC(=O)c1ccc(N)cc1` was run?
A: Its value is 3.67.

Q: And the “48 h IGC50 (-log10 mol/L)” value (Tetrahymena pyriformis)?
A: Its value is 3.7.

Q: How did the “96 h LC50 (-log10 mol/L)” value (Pimephales promelas) turn out when `CC(C)O` was run?
A: Its value is 0.778.

Q: And the “48 h IGC50 (-log10 mol/L)” value (Tetrahymena pyriformis)?
A: The value was 1.12.

Q: How did the “96 h LC50 (-log10 mol/L)” value (Pimephales promelas) turn out when `CC(C)c1cccc(C(C)C)c1N` was run?
A: The value was 4.1.

Q: And the “48 h IGC50 (-log10 mol/L)” value (Tetrahymena pyriformis)?
A: The value was 3.76.

Q: `CCOc1ccc(C=O)cc1` was tested. Which “96 h LC50 (-log10 mol/L)” value (Pimephales promelas) did it give?
A: The value was 3.74.

Q: And the “48 h IGC50 (-log10 mol/L)” value (Tetrahymena pyriformis)?
A: The value was 3.07.

Q: What does the source list for `Brc1nc(Br)c(Br)[nH]1`?
A: 96 h LC50 (-log10 mol/L) (Pimephales promelas): 4.7; 48 h IGC50 (-log10 mol/L) (Tetrahymena pyriformis): 4.43

Q: Which results are given for `O=Cc1cc(Br)cc(Br)c1O`?
A: 96 h LC50 (-log10 mol/L) (Pimephales promelas): 5.52; 48 h IGC50 (-log10 mol/L) (Tetrahymena pyriformis): 4.65

Q: `N#CCC#N` was tested. Which “96 h LC50 (-log10 mol/L)” value (Pimephales promelas) did it give?
A: Its value is 5.07.

Q: And the “48 h IGC50 (-log10 mol/L)” value (Tetrahymena pyriformis)?
A: Its value is 3.22.

Q: Which results are given for `N#CCCl`?
A: 96 h LC50 (-log10 mol/L) (Pimephales promelas): 4.75; 48 h IGC50 (-log10 mol/L) (Tetrahymena pyriformis): 3.85

Q: What does the source list for `COc1cc(OC)c(OC)cc1C=O`?
A: 96 h LC50 (-log10 mol/L) (Pimephales promelas): 3.6; 48 h IGC50 (-log10 mol/L) (Tetrahymena pyriformis): 2.9

Q: `CCCOC(C)=O` was tested. Which “96 h LC50 (-log10 mol/L)” value (Pimephales promelas) did it give?
A: The value was 3.23.

Q: What about the “48 h IGC50 (-log10 mol/L)” value (Tetrahymena pyriformis) of the same molecule?
A: Its value is 1.76.

Q: With `CCc1ccccn1` as the molecule, how does the “96 h LC50 (-log10 mol/L)” value (Pimephales promelas) read?
A: The value was 2.41.

Q: And the “48 h IGC50 (-log10 mol/L)” value (Tetrahymena pyriformis)?
A: The value was 2.13.

Q: `CCCCCCCCCCCC(C)=O` was tested. Which “96 h LC50 (-log10 mol/L)” value (Pimephales promelas) did it give?
A: Its value is 5.74.

Q: And the “48 h IGC50 (-log10 mol/L)” value (Tetrahymena pyriformis)?
A: The value was 5.12.

Q: Which “96 h LC50 (-log10 mol/L)” value (Pimephales promelas) does the source give for `CC(=O)c1ccncc1` here?
A: The value was 2.86.

Q: What about the “48 h IGC50 (-log10 mol/L)” value (Tetrahymena pyriformis) of the same molecule?
A: The value was 2.13.

Q: Which results are given for `O=Cc1cc(O)ccc1[N+](=O)[O-]`?
A: 96 h LC50 (-log10 mol/L) (Pimephales promelas): 3.6; 48 h IGC50 (-log10 mol/L) (Tetrahymena pyriformis): 3.33

Q: Which results are given for `CCCCOC(=O)CCC`?
A: 96 h LC50 (-log10 mol/L) (Pimephales promelas): 4.09; 48 h IGC50 (-log10 mol/L) (Tetrahymena pyriformis): 3.52

Q: Which “96 h LC50 (-log10 mol/L)” value (Pimephales promelas) does the source give for `C/C=C/C=O` here?
A: Its value is 4.92.

Q: And the “48 h IGC50 (-log10 mol/L)” value (Tetrahymena pyriformis)?
A: Its value is 4.06.

Q: Which results are given for `Cc1cccc(O)c1[N+](=O)[O-]`?
A: 96 h LC50 (-log10 mol/L) (Pimephales promelas): 3.52; 48 h IGC50 (-log10 mol/L) (Tetrahymena pyriformis): 3.61

Q: `Oc1ccc(Cl)cc1O` was tested. Which “96 h LC50 (-log10 mol/L)” value (Pimephales promelas) did it give?
A: Its value is 4.96.

Q: What about the “48 h IGC50 (-log10 mol/L)” value (Tetrahymena pyriformis) of the same molecule?
A: Its value is 4.06.

Q: How did the “96 h LC50 (-log10 mol/L)” value (Pimephales promelas) turn out when `CC(=O)C(C)C` was run?
A: The value was 2.

Q: And the “48 h IGC50 (-log10 mol/L)” value (Tetrahymena pyriformis)?
A: The value was 1.83.

Q: `COCCN` was tested. Which “96 h LC50 (-log10 mol/L)” value (Pimephales promelas) did it give?
A: Its value is 2.16.

Q: What about the “48 h IGC50 (-log10 mol/L)” value (Tetrahymena pyriformis) of the same molecule?
A: Its value is 1.21.

Q: For `CCCCC=O`, which “96 h LC50 (-log10 mol/L)” value (Pimephales promelas) is on record?
A: The value was 3.83.

Q: And the “48 h IGC50 (-log10 mol/L)” value (Tetrahymena pyriformis)?
A: Its value is 2.98.

Q: Which results are given for `CCCCCC(=O)OCC`?
A: 96 h LC50 (-log10 mol/L) (Pimephales promelas): 4.21; 48 h IGC50 (-log10 mol/L) (Tetrahymena pyriformis): 3.06

Q: With `CC(C)C(O)C(C)C` as the molecule, how does the “96 h LC50 (-log10 mol/L)” value (Pimephales promelas) read?
A: The value was 2.85.

Q: What about the “48 h IGC50 (-log10 mol/L)” value (Tetrahymena pyriformis) of the same molecule?
A: The value was 2.29.

Q: How did the “96 h LC50 (-log10 mol/L)” value (Pimephales promelas) turn out when `CCCCCCCCC#N` was run?
A: The value was 4.3.

Q: And the “48 h IGC50 (-log10 mol/L)” value (Tetrahymena pyriformis)?
A: The value was 3.62.

Q: What does the source list for `CCC#N`?
A: 96 h LC50 (-log10 mol/L) (Pimephales promelas): 1.56; 48 h IGC50 (-log10 mol/L) (Tetrahymena pyriformis): 1.03

Q: With `c1ccc2cnncc2c1` as the molecule, how does the “96 h LC50 (-log10 mol/L)” value (Pimephales promelas) read?
A: The value was 3.11.

Q: What about the “48 h IGC50 (-log10 mol/L)” value (Tetrahymena pyriformis) of the same molecule?
A: Its value is 2.66.
